Tested on: HeLa cells
Assay: Acridine orange staining of acidic vesicular organelles
Format: cell-based
Conditions: 24 hrs
Procedure: FIG. 3A is the graph showing the percentage of nuclear translocated TFEB for which TFEB-GFP HeLa cells were treated with MSL compound for 4 hrs and then nuclei of the cells were stained with DAPI. FIG. 3B is the results of the experiments in which HeLa cells were incubated in the presence of MSL compound or vehicle control for 24 hrs and then the acidic vesicular organelles formed were stained with acridine orange. FIG. 3C is the results of the experiments in which TFEB-GFP HeLa cells were treated with MSL compound or vehicle control for 4 hrs and then the cells were immunoblotted with the antibodies indicated. […]
Screening of autophagy enhancer. […] Firefly luciferase was determined after mixing 5 μl of lysate with 25 μl of Luciferase Assay Reagent II. Renilla luciferase was then determined after further addition of 20 ul of Stop&Glo Reagent. […] Cytotoxicity was determined by the measurement of LDH release in cell culture media using the LDH kit (Roche), according to the protocol from the manufacturer. […] Imaging and image quantification. […] Formation of acidic vesicular organelles was quantitated by staining the cells with acridine orange (Invitrogen, 5 ug/ml, 10 min). […] Cells or tissues were solubilized in lysis buffer supplemented with protease and phosphatase inhibitors and protein concentration was measured by the Bradford method. […] Protein levels were quantified by using ImageJ software analysis. […]

Compound: CSc1oc(-c2ccccc2)nc1S(=O)(=O)c1ccc(F)cc1 [MSL]
- red fluorescence after acridine orange staining (lysosomal acidification and content): significantly increased

Reference: patent publication US10881642B2, “Autophagy enhancer and use thereof” (Industry-Academic Cooperation Foundation, Yonsei University, priority 2016, dated 2021)
